# Measurements reported in US4228156A, “Synthetic peptides having pituitary growth hormone releasing activity” (Beckman Instruments, Inc., priority 1979, dated 1980).
# Non-standard residues stand in square brackets, D forms with d. Residues, ends and D or L forms follow the SMILES beside them.
# System: pituitaries removed from 20 day old female rats
# Assay: In vitro growth hormone release study (incubated rat pituitaries, GH radioimmunoassay of the medium)
# Format: cell-based, rats (CD-1 strain)
# Settings: two pituitaries in 1 ml lactated Ringer's, 36° C., ± SEM
# Description: Female rats of the CD-1 strain were housed in a constant temperature room at 24° C. with 14 hours light and 10 hours darkness. The rats were fed Purina brand rat chow ab libitum. All studies were started between 0800 and 1000 hours. Pituitaries were removed from 20 day old female rats. Two pituitaries were incubated at 36° C. in 1 ml of lactated Ringer's solution in 10 ml polytetrafluoroethylene beakers in a Dubnoff Shaker (90 cycles/min.). The pituitaries were incubated a total of 4 hours (P1, P2, I3, and I4). After two successive one hour preincubation periods (P1, P2), the peptide was added to the incubation medium hourly for 2 hours (I3, I4). This in vitro study was performed in triplicate and a standard radioimmunoassay of growth hormone present in the incubation medium was performed in duplicate. The hormonal activity was calculated as the difference (Δ) of growth hormone (GH) levels between I3, I4 and P2, i.e., (I3 -P2) and (I4 -P2). P values were calculated by Students' t test using six growth hormone values for each value recorded. The growth hormone radioimmunoassay reagents were distributed by the National Institute of Arthritis and Metabolite Disease Division (NIAMDD) program. The growth hormone values were calculated in terms of nanograms (ng) of a rat standard with a growth hormone potency of 0.61 units/mg.
smiles,measurement,setting,value
"NC(=O)[C@H](Cc1ccccc1)NC(=O)[C@@H](Cc1c[nH]c2ccccc12)NC(=O)[C@H](N)Cc1c[nH]c2ccccc12 [H2 N--D-Trp--D-Trp--Phe--CONH2, H2 N-D-Trp-D-Trp-Phe-CONH2] (H-[dW]-[dW]-Phe-NH2)","In vitro growth hormone release (ΔGH, I3-P2 and I4-P2)","0.3μg peptide, P Value ~0.02",592 ± 237 ng.increment.GH/ml incubation
same,"In vitro growth hormone release (ΔGH, I3-P2 and I4-P2)","1μg peptide, P Value <0.001",943 ± 137 ng.increment.GH/ml incubation
same,"In vitro growth hormone release (ΔGH, I3-P2 and I4-P2)","10μg peptide, P Value <0.001",1263 ± 293 ng.increment.GH/ml incubation
same,"In vitro growth hormone release (ΔGH, I3-P2 and I4-P2)","100μg peptide, P Value <0.01",635 ± 165 ng.increment.GH/ml incubation
